The values that follow come from PubChem BioAssay AID2060614 (Molecular Pharmacology Branch, DTP, NCI, 2025).

Usually viability, T/C stands for the ratio of treated to control. By IC50 is commonly meant the midpoint of a concentration-inhibition curve.

For this test, the system named is 598228-144-R-J1-PDC complex spheroids, viability. Nature of the test: Anticancer human tumor 598228-144-R-J1-PDC patient-derived serous endometrial adenocarcinoma cell line growth inhibition [CLK]. The settings on record: for viability, T/C: stronger effect = lower value. The method in brief:
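Multi-cell-type spheroids combined patient-derived tumor cells with HUVEC endothelial cells and human mesenchymal stem cells. Paired agents were dosed in half-log steps down from about clinical Cmax, or from 10 microM where Cmax was unknown.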

[1] abbreviates: curve of first compound, second compound 0.0316 µM.
Where [2] appears, read: curve of first compound, second compound 0.1 µM.
[3] abbreviates: curve of first compound, second compound 0.316 µM.
Setting [4] is: curve of first compound, second compound 1 µM.
Where [5] appears, read: curve of first compound, second compound 3.16 µM.
Setting [6] is: curve of first compound, second compound 10 µM.

Molecules are shown by their SMILES. Several values for one entry are separate records, joined by “and”; a condition that tells them apart may be missing. Equal entries are not always repeated.
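Note: spheroids exposed to compounds for seven days before readout.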
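Throughout, for viability, T/C: 100% = DMSO vehicle control wells.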

Take `CC1(C)CCC(CN2CCN(c3ccc(C(=O)NS(=O)(=O)c4ccc(NCC5CCOCC5)c([N+](=O)[O-])c4)c(Oc4cnc5[nH]ccc5c4)c3)CC2)=C(c2ccc(Cl)cc2)C1`: the viability, T/C (compound 0.0316 µM) was 107% and 88.7%; the viability, T/C (compound 0.1 µM) was 89.8% and 91.9%; the viability, T/C (compound 0.316 µM) was 89.7% and 89.9%; the viability, T/C (compound 1 µM) was 104% and 105%; the viability, T/C (compound 3.16 µM) was 101% and 94.9%; the viability, T/C (compound 10 µM) is 32.4% and 26.7%. The IC50 (curve of compound) was 7.36 µM and 6.72 µM.

Consider `C=C(F)C(=O)N1CCN(c2nc(OCC3CCCN3C)nc3c2CCN(c2cccc4cccc(Cl)c24)C3)CC1CC#N` (configuration not stated), for which the viability, T/C by setting is: (compound 0.0316 µM) 91% and 112%; (compound 0.1 µM) 107% and 89.4%; (compound 0.316 µM) 97.2% and 105%; (compound 1 µM) 109% and 103%; (compound 3.16 µM) 66.6% and 68.1%; (compound 10 µM) 0.83% and 0.61%. Also, under “curve of compound”, the IC50 is 4.23 µM and 4.3 µM.

On to `O=C(c1cc(Cc2n[nH]c(=O)c3ccccc23)ccc1F)N1CCN(C(=O)C2CC2)CC1` + CNC(=O)c1ccc(Nc2nc(OC3CCCC3)c3c(-c4ccc5nc(C)oc5c4)c[nH]c3n2)c(OC)c1, for which the IC50 under setting [1] is above 10 µM; the IC50 under setting [2] was above 10 µM; the IC50 under setting [3] was above 10 µM; the IC50 under setting [4] was above 10 µM; the IC50 under setting [5] is above 10 µM; the half-maximal inhibitory concentration (IC50) under setting [6] is above 10 µM. Further, the viability, T/C was 112% (second compound 0.0316 µM, first compound 0.0316 µM); 125% (second compound 0.0316 µM, first compound 0.1 µM); 115% (second compound 0.0316 µM, first compound 0.316 µM); 129% (second compound 0.0316 µM, first compound 1 µM); 124% (second compound 0.0316 µM, first compound 3.16 µM); 113% (second compound 0.0316 µM, first compound 10 µM). For the same compound, the viability, T/C was 129% (second compound 0.1 µM, first compound 0.0316 µM); 127% (second compound 0.1 µM, first compound 0.1 µM); 106% (second compound 0.1 µM, first compound 0.316 µM); 129% (second compound 0.1 µM, first compound 1 µM); 127% (second compound 0.1 µM, first compound 3.16 µM); 105% (second compound 0.1 µM, first compound 10 µM). Further, the viability, T/C reads like this: (second compound 0.316 µM, first compound 0.0316 µM) 112%; (second compound 0.316 µM, first compound 0.1 µM) 130%; (second compound 0.316 µM, first compound 0.316 µM) 111%; (second compound 0.316 µM, first compound 1 µM) 118%; (second compound 0.316 µM, first compound 3.16 µM) 117%; (second compound 0.316 µM, first compound 10 µM) 113%. Further, the viability, T/C is 121% (second compound 1 µM, first compound 0.0316 µM); 101% (second compound 1 µM, first compound 0.1 µM); 99% (second compound 1 µM, first compound 0.316 µM); 115% (second compound 1 µM, first compound 1 µM); 123% (second compound 1 µM, first compound 3.16 µM); 94% (second compound 1 µM, first compound 10 µM). The viability, T/C is 114% (second compound 3.16 µM, first compound 0.0316 µM); 102% (second compound 3.16 µM, first compound 0.1 µM); 108% (second compound 3.16 µM, first compound 0.316 µM); 97.6% (second compound 3.16 µM, first compound 1 µM); 106% (second compound 3.16 µM, first compound 3.16 µM); 117% (second compound 3.16 µM, first compound 10 µM). The viability, T/C by setting is: (second compound 10 µM, first compound 0.0316 µM) 98.5%; (second compound 10 µM, first compound 0.1 µM) 97.8%; (second compound 10 µM, first compound 0.316 µM) 92.6%; (second compound 10 µM, first compound 1 µM) 121%; (second compound 10 µM, first compound 3.16 µM) 109%; (second compound 10 µM, first compound 10 µM) 104%.

`C=CC(=O)Nc1cc(Nc2nccc(-c3cn(C)c4ccccc34)n2)c(OC)cc1N(C)CCN(C)C`: the viability, T/C is, setting by setting: (compound 0.000949 µM) 106% and 86.2%; (compound 0.003 µM) 95.3% and 97.7%; (compound 0.00949 µM) 108% and 95.7%; (compound 0.03 µM) 93.7% and 93.5%; (compound 0.0949 µM) 99.3% and 92.6%; (compound 0.3 µM) 92.1% and 94.7%. Further, the IC50 (curve of compound) was above 0.3 µM.

In the case of `CC(C)CC(NC(=O)C(Cc1ccccc1)NC(=O)c1cnccn1)B(O)O` (configuration not stated) + CN1CCN(c2cc(C(=O)Nc3cc4cc(-c5cnn(C)c5)ccc4cn3)ccn2)CC1, the IC50 is, setting by setting: under setting [1], 0.00412 µM; under setting [2], 0.00254 µM; under setting [3], below 0.000949 µM; under setting [4], below 0.000949 µM; under setting [5], below 0.000949 µM; under setting [6], below 0.000949 µM. The viability, T/C is 124% (second compound 0.0316 µM, first compound 0.000949 µM); 68.6% (second compound 0.0316 µM, first compound 0.003 µM); 0.89% (second compound 0.0316 µM, first compound 0.00949 µM); 0.39% (second compound 0.0316 µM, first compound 0.03 µM); 0.34% (second compound 0.0316 µM, first compound 0.0949 µM); 0.29% (second compound 0.0316 µM, first compound 0.3 µM). In addition, the viability, T/C was 137% (second compound 0.1 µM, first compound 0.000949 µM); 35.3% (second compound 0.1 µM, first compound 0.003 µM); 0.57% (second compound 0.1 µM, first compound 0.00949 µM); 0.37% (second compound 0.1 µM, first compound 0.03 µM); 0.35% (second compound 0.1 µM, first compound 0.0949 µM); 2.83% (second compound 0.1 µM, first compound 0.3 µM). Also, the viability, T/C reads like this: (second compound 0.316 µM, first compound 0.000949 µM) 19.9%; (second compound 0.316 µM, first compound 0.003 µM) 2.9%; (second compound 0.316 µM, first compound 0.00949 µM) 0.32%; (second compound 0.316 µM, first compound 0.03 µM) 0.26%; (second compound 0.316 µM, first compound 0.0949 µM) 0.88%; (second compound 0.316 µM, first compound 0.3 µM) 6.75%. In addition, the viability, T/C reads like this: (second compound 1 µM, first compound 0.000949 µM) 0.79%; (second compound 1 µM, first compound 0.003 µM) 0.61%; (second compound 1 µM, first compound 0.00949 µM) 0.36%; (second compound 1 µM, first compound 0.03 µM) 0.23%; (second compound 1 µM, first compound 0.0949 µM) 1.86%; (second compound 1 µM, first compound 0.3 µM) 4.83%. Also, the viability, T/C runs as follows: (second compound 3.16 µM, first compound 0.000949 µM) 1.18%; (second compound 3.16 µM, first compound 0.003 µM) 1.87%; (second compound 3.16 µM, first compound 0.00949 µM) 0.3%; (second compound 3.16 µM, first compound 0.03 µM) 0.21%; (second compound 3.16 µM, first compound 0.0949 µM) 1.26%; (second compound 3.16 µM, first compound 0.3 µM) 2.5%. Further, the viability, T/C (second compound 10 µM, first compound 0.000949 µM) was 0.91%; the viability, T/C (second compound 10 µM, first compound 0.003 µM) was 2.49%; the viability, T/C (second compound 10 µM, first compound 0.00949 µM) was 0.22%; the viability, T/C (second compound 10 µM, first compound 0.03 µM) was 0.2%; the viability, T/C (second compound 10 µM, first compound 0.0949 µM) is 3.91%; the viability, T/C (second compound 10 µM, first compound 0.3 µM) was 3.86%.

Consider `C=CC(=O)N1CCN(c2nc(=O)n(-c3c(C)ccnc3C(C)C)c3nc(-c4c(O)cccc4F)c(F)cc23)C(C)C1` (configuration not stated), for which the viability, T/C by setting is: (compound 0.0316 µM) 95% and 99.2%; (compound 0.1 µM) 94.5% and 92.9%; (compound 0.316 µM) 98.5% and 113%; (compound 1 µM) 108% and 115%; (compound 3.16 µM) 107% and 117%; (compound 10 µM) 98% and 109%. Further, under “curve of compound”, the IC50 was above 10 µM.
